Assay results taken from ChEMBL document CHEMBL1201862, “PubChem BioAssay data set” (2004).
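Method: 48-hour compound exposure of cells in 96-well plates, five concentrations, linear interpolation of endpoints. GI50 = concentration required for 50% inhibition of growth.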 Calls of active or inactive are those of the source. Cut-off read from the data, not from the text of the source: active = GI50 up to about 1.1 µM and inactive = higher.

Key:
Test in all cases: NCI anticancer screen, dose series, 48 h
UACC-62 = test system: UACC-62
LXFL 529 = test system: LXFL 529
Malme-3M = test system: Malme-3M
HOP-62 = test system: HOP-62
K562 = test system: K562
NCI-H460 = test system: NCI-H460
RXF 393 = test system: RXF 393
NCI-H522 = test system: NCI-H522
786-0 = test system: 786-0
SNB-19 = test system: SNB-19
CAKI-1 = test system: CAKI-1
SK-OV-3 = test system: SK-OV-3
SK-MEL-5 = test system: SK-MEL-5
SF-295 = test system: SF-295
HOP-92 = test system: HOP-92
SK-MEL-2 = test system: SK-MEL-2
UO-31 = test system: UO-31
HL-60 = test system: HL-60
A549 = test system: A549

Measured: GI50

NC1=NC2=C(CCCC2)C(c2cccs2)S1 (centres undefined)
inactive: UACC-62 > 100 µM | LXFL 529 > 100 µM | Malme-3M 92.9 µM | HOP-62 > 100 µM | K562 56.9 µM | NCI-H460 > 100 µM | RXF 393 38.5 µM | NCI-H522 27.9 µM | 786-0 84.5 µM | SNB-19 > 100 µM | CAKI-1 > 100 µM | SK-OV-3 > 100 µM | SK-MEL-5 54.5 µM | SF-295 > 100 µM | HOP-92 47.8 µM | SK-MEL-2 > 100 µM | UO-31 5.43 µM | HL-60 8.73 µM | A549 93.3 µM

CC(C)(C)C1CCC2c3c([nH]c4ncccc34)C3C(=O)N(c4ccccc4)C(=O)C3C2C1 (centres undefined)
inactive: UACC-62 > 100 µM | LXFL 529 > 100 µM | Malme-3M > 100 µM | HOP-62 > 100 µM | K562 > 100 µM | NCI-H460 > 100 µM | RXF 393 > 100 µM | NCI-H522 89.3 µM | 786-0 > 100 µM | SNB-19 > 100 µM | CAKI-1 > 100 µM | SK-OV-3 > 100 µM | SK-MEL-5 > 100 µM | SF-295 > 100 µM | HOP-92 > 100 µM | SK-MEL-2 > 100 µM | UO-31 > 100 µM | HL-60 65.9 µM | A549 > 100 µM

Cc1ccc(NC(=O)CC/C(CC(=O)C(C)(C)C)=N/Nc2nnc(C)n2N)cc1C
inactive: UACC-62 > 100 µM | LXFL 529 > 100 µM | Malme-3M > 100 µM | HOP-62 > 100 µM | K562 43 µM | NCI-H460 > 100 µM | RXF 393 > 100 µM | NCI-H522 > 100 µM | 786-0 > 100 µM | SNB-19 > 100 µM | CAKI-1 > 100 µM | SK-OV-3 > 100 µM | SK-MEL-5 > 100 µM | SF-295 > 100 µM | HOP-92 > 100 µM | SK-MEL-2 > 100 µM | UO-31 > 100 µM | HL-60 > 100 µM | A549 > 100 µM

O=C(NCCCN1CCN(CCCNC(=O)Nc2cc(Cl)ccc2Cl)CC1)Nc1cc(Cl)ccc1Cl
inactive: UACC-62 64.7 µM | LXFL 529 51.2 µM | Malme-3M 24.3 µM | HOP-62 52.6 µM | K562 35.5 µM | NCI-H460 > 100 µM | RXF 393 > 100 µM | NCI-H522 38.6 µM | 786-0 32.5 µM | SNB-19 46.3 µM | CAKI-1 > 100 µM | SK-OV-3 97.9 µM | SK-MEL-5 39.7 µM | SF-295 49.3 µM | HOP-92 50.6 µM | SK-MEL-2 > 100 µM | UO-31 > 100 µM | HL-60 34.4 µM | A549 > 100 µM

O=c1c(Br)cc2nc3ccccc3sc-2c1Br
inactive: UACC-62 25 µM | LXFL 529 28.1 µM | Malme-3M > 100 µM | HOP-62 > 100 µM | K562 18.7 µM | NCI-H460 > 100 µM | RXF 393 > 100 µM | NCI-H522 15.8 µM | 786-0 15.4 µM | SNB-19 > 100 µM | CAKI-1 > 100 µM | SK-OV-3 > 100 µM | SK-MEL-5 29.5 µM | SF-295 > 100 µM | HOP-92 50 µM | SK-MEL-2 > 100 µM | UO-31 > 100 µM | HL-60 16.3 µM | A549 > 94.8 µM

CCC(O)CCCCCCCCCCCCCCC(=O)O (centres undefined)
inactive: UACC-62 > 100 µM | LXFL 529 > 100 µM | Malme-3M > 100 µM | HOP-62 > 100 µM | K562 > 100 µM | NCI-H460 > 100 µM | RXF 393 > 100 µM | NCI-H522 > 100 µM | 786-0 84.9 µM | SNB-19 > 100 µM | CAKI-1 > 100 µM | SK-OV-3 > 100 µM | SK-MEL-5 18.8 µM | SF-295 > 100 µM | HOP-92 > 100 µM | SK-MEL-2 > 100 µM | UO-31 > 100 µM | HL-60 24.8 µM | A549 > 100 µM

O=C1c2ccccc2C2CCC1c1ccccc12 (centres undefined)
inactive: UACC-62 34.6 µM | LXFL 529 36.3 µM | Malme-3M 18.3 µM | HOP-62 48 µM | K562 23.6 µM | NCI-H460 33.3 µM | RXF 393 24.4 µM | NCI-H522 25 µM | 786-0 38.8 µM | SNB-19 65 µM | CAKI-1 34.8 µM | SK-OV-3 41.5 µM | SK-MEL-5 16.3 µM | SF-295 33.4 µM | HOP-92 20.3 µM | SK-MEL-2 32.1 µM | UO-31 21.1 µM | HL-60 15 µM | A549 25.2 µM

COC(=O)C(C#N)=C1c2ccccc2Oc2ccccc21
inactive: UACC-62 35.7 µM | LXFL 529 29.8 µM | Malme-3M 93.3 µM | HOP-62 > 100 µM | K562 31.5 µM | NCI-H460 > 100 µM | RXF 393 38.5 µM | NCI-H522 24.9 µM | 786-0 63.7 µM | SNB-19 41.6 µM | CAKI-1 > 100 µM | SK-OV-3 42.1 µM | SK-MEL-5 33.9 µM | SF-295 46.5 µM | HOP-92 30.5 µM | SK-MEL-2 > 100 µM | UO-31 > 100 µM | HL-60 20.8 µM | A549 > 100 µM

Cc1cc(NS(=O)(=O)c2ccc(NC(=O)c3cccc4c(Nc5ccc(S(=O)(=O)Nc6cc(C)on6)cc5)c5ccc(Cl)cc5nc34)cc2)no1
inactive: UACC-62 35.2 µM | LXFL 529 43.2 µM | Malme-3M > 100 µM | HOP-62 61.5 µM | K562 40.8 µM | NCI-H460 65 µM | RXF 393 29.2 µM | NCI-H522 31.4 µM | 786-0 > 100 µM | SNB-19 28.1 µM | CAKI-1 > 100 µM | SK-OV-3 > 100 µM | SK-MEL-5 56.4 µM | SF-295 > 100 µM | HOP-92 24.3 µM | SK-MEL-2 > 100 µM | UO-31 25.3 µM | HL-60 35 µM | A549 61.1 µM

CCCCCCCCCCCCCC/C(C(=O)OC)=C(/O)C(=O)OCC
inactive: UACC-62 16.9 µM | LXFL 529 39.3 µM | Malme-3M > 100 µM | HOP-62 61.2 µM | K562 27 µM | NCI-H460 37.8 µM | RXF 393 99.5 µM | NCI-H522 43.3 µM | 786-0 19.7 µM | SNB-19 40.9 µM | CAKI-1 31.4 µM | SK-OV-3 35.3 µM | SK-MEL-5 > 100 µM | SF-295 20.6 µM | HOP-92 25.5 µM | SK-MEL-2 16.6 µM | UO-31 23.6 µM | HL-60 > 100 µM | A549 26.4 µM

CC(C)c1cccc(=O)c(O)c1 [HINOKITIOL]
inactive: UACC-62 5.79 µM | LXFL 529 6.85 µM | Malme-3M 12.6 µM | HOP-62 10.9 µM | K562 6.38 µM | NCI-H460 6.98 µM | RXF 393 25.4 µM | NCI-H522 3.82 µM | 786-0 5.22 µM | SNB-19 10.9 µM | CAKI-1 16.1 µM | SK-OV-3 49.4 µM | SK-MEL-5 24.5 µM | SF-295 6.52 µM | HOP-92 15.9 µM | SK-MEL-2 12.1 µM | UO-31 10.5 µM | HL-60 2.49 µM | A549 9.35 µM
